24 molecules from patent US20110112135A1, “Imidazo [1,2-A] Pyridine Compounds” (priority 2007, published 2011) can be followed below.

Assay [1] concerns the target T1, human LXRβ (Homo sapiens, UniProt P55055).
T1 construct: biotin (biotinylated); made in house; host or cells: E. coli (crude extract)
T1 sequence (P55055 1-460): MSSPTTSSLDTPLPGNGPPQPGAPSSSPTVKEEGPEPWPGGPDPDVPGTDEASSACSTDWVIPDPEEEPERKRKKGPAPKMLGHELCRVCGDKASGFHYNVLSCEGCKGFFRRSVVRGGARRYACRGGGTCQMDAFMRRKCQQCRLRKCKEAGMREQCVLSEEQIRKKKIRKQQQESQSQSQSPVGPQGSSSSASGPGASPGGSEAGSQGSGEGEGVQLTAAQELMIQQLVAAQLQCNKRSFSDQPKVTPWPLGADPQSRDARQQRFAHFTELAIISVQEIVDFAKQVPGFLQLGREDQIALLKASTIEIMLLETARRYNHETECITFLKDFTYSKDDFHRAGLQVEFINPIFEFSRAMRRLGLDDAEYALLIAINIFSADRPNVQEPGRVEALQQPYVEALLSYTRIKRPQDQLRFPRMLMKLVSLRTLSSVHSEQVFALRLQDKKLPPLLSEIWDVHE
The experiment in a line: Ligand-binding test procedure for human LXRβ (3H T0901317 tracer, flash plates). The following applies: biotinylated hLXRβ from E. coli extract; tracer 3H T0901317. On the procedure: I. Ligand-Binding Test Procedure for Human LXRβ.
Receptor source: E. coli extract from cells expressing biotinylated hLXRβ. Extract was made in a similar buffer as above, but with 50 mM TRIS.
(§1) Washed streptavidin and coated flash plates with wash buffer. Diluted receptor extract to give Bmax ˜4000 cpm and add to the wells. Wrapped the plates in aluminum foil and stored them at +4° C. over night.
(§2) Made a dilution series in DMSO of the test ligands. Made a 5 nM solution of the radioactive tracer in buffer. Mixed 250 μl diluted tracer with 5 μl of the test ligand from each concentration of the dilution series. Washed the receptor-coated flash plates. Added 200 μl per well of the ligand/radiolabel mixture to the receptor-coated flash plates. Wrapped the plates in aluminum foil and incubate at +4° C. over night.
(§3) Aspirated wells, and wash the flashed plates. Sealed the plate. Measured the remaining radioactivity in the plate.

The target of assay [2] is T2, human LXRα (Homo sapiens, UniProt Q13133).
T2 construct: biotin (biotinylated); made in house; host or cells: E. coli (crude extract)
T2 sequence (Q13133 1-447): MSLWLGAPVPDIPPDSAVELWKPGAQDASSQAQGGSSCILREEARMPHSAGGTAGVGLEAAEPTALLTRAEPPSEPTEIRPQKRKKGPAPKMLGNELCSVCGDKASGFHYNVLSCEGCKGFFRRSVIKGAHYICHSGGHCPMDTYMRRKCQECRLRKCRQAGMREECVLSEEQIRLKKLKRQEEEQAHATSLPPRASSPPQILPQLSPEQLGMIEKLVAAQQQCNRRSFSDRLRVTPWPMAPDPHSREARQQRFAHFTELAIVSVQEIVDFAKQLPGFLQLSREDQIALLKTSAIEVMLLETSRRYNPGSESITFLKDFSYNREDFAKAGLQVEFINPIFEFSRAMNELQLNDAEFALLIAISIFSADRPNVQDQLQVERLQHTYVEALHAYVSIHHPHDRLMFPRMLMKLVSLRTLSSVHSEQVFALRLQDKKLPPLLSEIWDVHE
The experiment in a line: Ligand-binding test procedure for human LXRα (3H T0901317 tracer, flash plates). Conditions: biotinylated hLXRα from E. coli extract; tracer 3H T0901317. On the procedure:
II. Ligand-Binding Test Procedure for Human LXRα.
Receptor source: E. coli extract from cells expressing biotinylated hLXRα. Extract was made in a similar buffer as above, but with 50 mM TRIS.
as §1, §2, §3

In the case of `CC(C)S(=O)(=O)c1cccc(Oc2cccc(-c3c(C(C)(C)C)nc4c(C#N)cccn34)c2)c1` [Example 80, 2-tert-butyl-3-{3-[3-(isopropylsulfonyl)phenoxy]phenyl}imidazo[1,2-a]pyridine-8-carbonitrile], the half-inhibitory concentration (IC50) (usually the concentration that gives 50% inhibition) in assay [1] was 16.3 nM; in assay [2], 526 nM.
`CC(C)(C)c1nc2c(C#N)cccn2c1-c1cccc(Oc2cccc(S(=O)(=O)CCCO)c2)c1` [Example 81, 2-tert-butyl-3-(3-{3-[(3-hydroxypropyl)sulfonyl]phenoxy}phenyl)imidazo[1,2-a]pyridine-8-carbonitrile]: the IC50 came out at 152 nM in assay [1] and 2390 nM in assay [2].
`CS(=O)(=O)c1cccc(Oc2cccc(-c3c(Cl)nc4c(C(F)(F)F)cccn34)c2)c1` [Example 85, 2-chloro-3-{3-[3-(methylsulfonyl)phenoxy]phenyl}-8-(trifluoromethyl)imidazo[1,2-a]pyridine]: the IC50 came out at 83 nM in assay [1] and 2750 nM in assay [2].
In the same order, the values of `CCc1nc2c(C(F)(F)F)cccn2c1-c1cccc(Oc2cccc(S(C)(=O)=O)c2)n1` [Example 88, 2-ethyl-3-{6-[3-(methylsulfonyl)phenoxy]pyridin-2-yl}-8-(trifluoromethyl)imidazo[1,2-a]pyridine] are greater than 1000 nM and greater than 1000 nM.
As for `CC(C)c1nc2c(C(F)(F)F)cccn2c1-c1cccc(Oc2cccc(S(C)(=O)=O)c2)n1` [Example 89, 2-isopropyl-3-{6-[3-(methylsulfonyl)phenoxy]pyridin-2-yl}-8-(trifluoromethyl)imidazo[1,2-a]pyridine], the 50% inhibitory concentration (IC50) in assay [1] and in assay [2] was greater than 1000 nM each time.
For the molecule `CCc1nc2c(C(F)(F)F)cccn2c1-c1ccc(-c2ccc(S(=O)(=O)C(C)C)cc2)cc1` [Example 92, 2-ethyl-3-(4′-(isopropylsulfonyl)biphenyl-4-yl)-8-(trifluoromethyl)imidazo[1,2-a]pyridine], the IC50 in assay [1] is 1590 nM; in assay [2] it was greater than 1000 nM.
Regarding `CCc1nc2c(C(F)(F)F)cccn2c1-c1ccc(-c2ccc(S(C)(=O)=O)cc2)cc1` [Example 93, 2-ethyl-3-(4′-(methylsulfonyl)biphenyl-4-yl)-8-(trifluoromethyl)imidazo[1,2-a]pyridine], the IC50 was 4080 nM in assay [1] and greater than 1000 nM in assay [2].
In the same order, the values of `CC(C)c1nc2c(C(F)(F)F)cccn2c1-c1ccc(-c2ccc(S(C)(=O)=O)cc2)cc1` [Example 94, 2-isopropyl-3-(4′-(methylsulfonyl)biphenyl-4-yl)-8-(trifluoromethyl)imidazo[1,2-a]pyridine] are greater than 1000 nM and greater than 1000 nM.
With `CCc1nc2c(C(F)(F)F)cccn2c1-c1ccc(-c2cccc(S(C)(=O)=O)c2)cc1` [Example 95, 2-ethyl-3-(3′-(methylsulfonyl)biphenyl-4-yl)-8-(trifluoromethyl)imidazo[1,2-a]pyridine], the IC50 in assay [1] was 135 nM; in assay [2] it was 2640 nM.
For the molecule `CC(C)c1nc2c(Cl)cccn2c1-c1cccc(Oc2ccc(S(N)(=O)=O)cc2)c1` [Example 99, 4-[3-(8-chloro-2-isopropylimidazo[1,2-a]pyridin-3-yl)phenoxy]benzenesulfonamide], the half-inhibitory concentration (IC50) in assay [1] and in assay [2] was greater than 1000 nM throughout.
As for `CCc1nc2c(C(F)(F)F)cccn2c1-c1ccc(Cc2cccc(S(C)(=O)=O)c2)cc1` [Example 101, 2-ethyl-3-{4-[3-(methylsulfonyl)benzyl]phenyl}-8-(trifluoromethyl)imidazo[1,2-a]pyridine], the IC50 in assay [1] and in assay [2] was greater than 1000 nM each time.
Regarding `CCc1nc2c(C(F)(F)F)cccn2c1-c1ccc(Oc2cccc(S(C)(=O)=O)c2)cc1` [Example 102, 2-ethyl-3-{4-[3-(methylsulfonyl)phenoxy]phenyl}-8-(trifluoromethyl)imidazo[1,2-a]pyridine], the values for the concentration for half-maximal inhibition (IC50) in assay [1] and in assay [2] were 336 nM and greater than 1000 nM, respectively.
Take `CCc1nc2c(Cl)cccn2c1-c1ccc(Oc2cccc(S(C)(=O)=O)c2)cc1` [Example 103, 8-chloro-2-ethyl-3-{4-[3-(methylsulfonyl)phenoxy]phenyl}imidazo[1,2-a]pyridine]: the IC50 in assay [1] is 417 nM; in assay [2], greater than 1000 nM.
Regarding `CCc1nc2c(C(F)(F)F)cccn2c1-c1ccc(Oc2cccc(S(=O)(=O)CC)c2)cc1` [Example 105, 2-ethyl-3-{4-[3-(ethylsulfonyl)phenoxy]phenyl}-8-(trifluoromethyl)imidazo[1,2-a]pyridine], the IC50 in assay [1] is 230 nM; in assay [2], greater than 1000 nM.
In the same order, the values of `CCc1nc2c(Cl)cccn2c1-c1ccc(Oc2cccc(S(=O)(=O)CC)c2)cc1` [Example 106, 8-chloro-2-ethyl-3-{4-[3-(ethylsulfonyl)phenoxy]phenyl}imidazo[1,2-a]pyridine] are 430 nM and greater than 1000 nM.
Consider `CCc1nc2c(Cl)cccn2c1-c1cccc(COc2cccc(S(C)(=O)=O)c2)c1` [Example 109, 8-chloro-2-ethyl-3-(3-{[3-(methylsulfonyl)phenoxy]methyl}phenyl)imidazo[1,2-a]pyridine], for which the IC50 in assay [1] is 268 nM; in assay [2], greater than 1000 nM.
In the same order, the values of `CCc1nc2c(C(F)(F)F)cccn2c1-c1ccc(COc2cccc(S(C)(=O)=O)c2)cc1` [Example 111, 2-ethyl-3-(4-{[3-(methylsulfonyl)phenoxy]methyl}phenyl)-8-(trifluoromethyl)imidazo[1,2-a]pyridine] are greater than 1000 nM and greater than 1000 nM.
Take `CC(C)c1nc2c(C#N)cccn2c1-c1cccc(Oc2cccc(CS(C)(=O)=O)c2)c1` [Example 115, 2-isopropyl-3-(3-{3-[(methylsulfonyl)methyl]phenoxy}phenyl)imidazo[1,2-a]pyridine-8-carbonitrile]: the half-maximal inhibitory concentration (IC50) in assay [1] and in assay [2] was greater than 1000 nM throughout.
`CC(C)(C)c1nc2c(C#N)cccn2c1-c1cccc(Oc2cccc(CS(C)(=O)=O)c2)c1` [Example 116, 2-tert-butyl-3-(3-{3-[(methylsulfonyl)methyl]phenoxy}phenyl)imidazo[1,2-a]pyridine-8-carbonitrile]: the IC50 is 970 nM in assay [1] and greater than 1000 nM in assay [2].
Turning to `CC(C)c1nc2c(Cl)cccn2c1-c1cccc(Oc2cccc(CS(C)(=O)=O)c2)c1` [Example 117, 8-chloro-2-isopropyl-3-(3-{3-[(methylsulfonyl)methyl]phenoxy}phenyl)imidazo[1,2-a]pyridine], the IC50 in assay [1] is 460 nM; in assay [2], greater than 1000 nM.
In the same order, the values of `CCc1nc2c(C#N)cccn2c1-c1cccc(Oc2cccc(CS(C)(=O)=O)c2)c1` [Example 118, 2-ethyl-3-(3-{3-[(methylsulfonyl)methyl]phenoxy}phenyl)imidazo[1,2-a]pyridine-8-carbonitrile] are greater than 1000 nM and greater than 1000 nM.
On to `CC(C)c1nc2c(Cl)cccn2c1-c1ccc(Oc2cccc(S(C)(=O)=O)c2)cc1` [Example 121, 8-chloro-2-(1-methylethyl)-3-{4-[3-(methylsulfonyl)phenoxy]phenyl}imidazo[1,2-a]pyridine], for which the figures for the 50% inhibitory concentration (IC50) in assay [1] and in assay [2] were 460 nM and greater than 1000 nM, respectively.
Take `CCS(=O)(=O)c1cccc(Oc2ccc(-c3c(C(C)C)nc4c(Cl)cccn34)cc2)c1` [Example 122, 8-chloro-3-{4-[3-(ethylsulfonyl)phenoxy]phenyl}-2-(1-methylethyl)imidazo[1,2-a]pyridine]: the half-maximal inhibitory concentration (IC50) was 345 nM in assay [1] and greater than 1000 nM in assay [2].
In the same order, the values of `Cc1nccn1Cc1nc2c(C(F)(F)F)cccn2c1-c1cccc(Oc2cccc(S(C)(=O)=O)c2)c1` [Example 130, 2-[(2-methyl-1H-imidazol-1-yl)methyl]-3-{3-[3-(methylsulfonyl)phenoxy]phenyl}-8-(trifluoromethyl)imidazo[1,2-a]pyridine] are 230 nM and greater than 1000 nM.
